Test results as given in ChEMBL document CHEMBL4819120, “Identification of non-covalent 3C-like protease inhibitors against severe acute respiratory syndrome coronavirus-2 via virtual screening of a Korean compound library” (Bioorg Med Chem Lett, 2021).

Experiments:
[1] = Inhibition of SARS-CoV-2 3CL protease using DABCYL-KTSAVLQ-SGFRKME-EDANS fluorogenic peptide as substrate by fluorescence assay; design: species or system Severe acute respiratory syndrome coronavirus 2
Vero C1008 = test: Cytotoxicity against African green monkey Vero E6 cells; assay type: cell-based; settings: chlorocebus sabaeus
SARS-CoV-2 = test: microbe, parasite or virus in culture; settings: Severe acute respiratory syndrome coronavirus 2, Vero C1008
Description: Antiviral activity against SARS-CoV-2 infected in monkey Vero E6 cells

SMILES	IC50 [1] [µM]	CC50 (Vero C1008) [µM]	EC50 (SARS-CoV-2) [µM]
Cc1ccc(Cl)cc1NC(=O)Cn1nc2c(Oc3ccc(C(C)C)cc3)nccn2c1=O	8.9		
Cc1cc(C)cc(Nc2nc(C)cc3nn(CC(=O)Nc4ccccc4F)c(=O)n23)c1	10.9		
Cc1ccc(Cn2c(=O)c3ccccc3n3c(=O)n(CC(=O)Nc4ccc(F)cc4F)nc23)cc1	9.5		
O=C(Cn1c2ccccc2n2c(=O)cc(-c3ccc(Cl)cc3)nc12)Nc1ccc(F)cc1F	5.7	454	39.9
Cc1cc2nn(CC(=O)Nc3ccccc3F)c(=O)n2c(Nc2ccccc2C)n1	8.7		
CCc1ccc(NC(=O)Cn2nc3n(Cc4ccc(F)cc4)c(=O)c4ccccc4n3c2=O)cc1	12.1		
Cc1cc(C)cc(Nc2nc(C)cc3nn(CC(=O)Nc4cc(F)ccc4F)c(=O)n23)c1	8	469	141
